Measurements published in US8629164B2, “Inhibitors of NF-κB” (Profectus Biosciences, Inc., priority 2009, dated 2014).

Assays:
[1] = system: NF-κB; assay: 293-cell pNF-κB-luc reporter assay, TNF-α induced; format: cell-based; details: for EC50: HEK293 cells, NF-κB driven luciferase expression, read-out: 293/NFkB-luc EC50
How it was run: (§1)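 HEK293 cells with stably integrated NF-κB reporters, pNF-κB-luc (3 elements) or pTRH1-NF-κB-dscGFP (4 elements). Cells pretreated 2 h with 0–40 μM compound, then stimulated with 20 ng/ml TNF-α for 18 h; luminescence or fluorescence read. Activity referenced to 0.5% DMSO control; median of three independent experiments.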

[2] = system: NF-κB; assay: 293-cell pTRH1-NF-κB-dscGFP reporter assay, TNF-α induced; format: cell-based; details: for EC50: Homo sapiens, HEK293, HEK293 cells, NF-κB driven GFP expression, read-out: NF-kB/293/GFP EC50
How it was run: as §1

[3] = system: IL-6 release from RAW264.7 cells; assay: IL-6 release from LPS stimulated RAW264.7 cells; format: cell-based, mouse; details: for EC50: Mus musculus, RAW264.7, RAW 264.7 cells
Experimental: Specifically, A and B show the effects of the compound of Example 1 on soluble PGE2 and Il-6 secretion from RAW264.7 cells stimulated by 1 μg/mL of LPS. The cells were treated with the indicated concentrations of the compound of Example 1 for 2 hours, and then LPS was added and incubation continued for 4 hours. […]

[4] = biological target: T1, p50 (Homo sapiens, UniProt P19838); assay: TransAM NF-κB Family DNA Binding ELISA, p50; details: p50 binding IC50 (uM), cells without % sign
T1 sequence (P19838 1-433 limits assumed): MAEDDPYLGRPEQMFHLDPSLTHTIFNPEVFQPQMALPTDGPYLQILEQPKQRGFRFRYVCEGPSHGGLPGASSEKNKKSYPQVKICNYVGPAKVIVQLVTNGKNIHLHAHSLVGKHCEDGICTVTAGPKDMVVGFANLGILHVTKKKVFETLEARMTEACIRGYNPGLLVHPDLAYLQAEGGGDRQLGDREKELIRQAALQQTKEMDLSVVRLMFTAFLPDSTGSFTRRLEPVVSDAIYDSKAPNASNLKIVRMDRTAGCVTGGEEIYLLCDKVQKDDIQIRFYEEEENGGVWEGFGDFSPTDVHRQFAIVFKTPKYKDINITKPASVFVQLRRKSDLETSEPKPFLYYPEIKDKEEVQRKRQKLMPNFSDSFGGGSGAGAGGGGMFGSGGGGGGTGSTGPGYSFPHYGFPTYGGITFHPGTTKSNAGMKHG

[5] = biological target: T2, RelB (Homo sapiens, UniProt Q01201); assay: TransAM NF-κB Family DNA Binding ELISA, RelB
T2 sequence (Q01201 1-579): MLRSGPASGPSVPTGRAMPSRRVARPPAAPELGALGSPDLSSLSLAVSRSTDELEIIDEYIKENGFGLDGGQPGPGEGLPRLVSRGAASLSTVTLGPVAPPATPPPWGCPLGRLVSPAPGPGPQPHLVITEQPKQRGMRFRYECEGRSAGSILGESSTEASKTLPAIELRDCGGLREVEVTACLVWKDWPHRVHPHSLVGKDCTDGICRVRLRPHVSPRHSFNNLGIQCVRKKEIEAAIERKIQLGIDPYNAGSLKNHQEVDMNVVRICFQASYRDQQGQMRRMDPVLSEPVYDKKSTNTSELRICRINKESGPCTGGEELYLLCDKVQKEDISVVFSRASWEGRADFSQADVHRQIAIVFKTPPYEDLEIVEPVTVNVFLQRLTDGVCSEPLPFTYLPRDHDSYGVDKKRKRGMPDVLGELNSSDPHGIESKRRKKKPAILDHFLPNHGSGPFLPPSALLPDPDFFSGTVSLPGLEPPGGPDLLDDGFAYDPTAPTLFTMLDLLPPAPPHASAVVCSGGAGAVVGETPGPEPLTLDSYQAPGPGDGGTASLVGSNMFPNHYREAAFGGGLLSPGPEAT
T2 sequence (Q00653 1-454 partner limits assumed): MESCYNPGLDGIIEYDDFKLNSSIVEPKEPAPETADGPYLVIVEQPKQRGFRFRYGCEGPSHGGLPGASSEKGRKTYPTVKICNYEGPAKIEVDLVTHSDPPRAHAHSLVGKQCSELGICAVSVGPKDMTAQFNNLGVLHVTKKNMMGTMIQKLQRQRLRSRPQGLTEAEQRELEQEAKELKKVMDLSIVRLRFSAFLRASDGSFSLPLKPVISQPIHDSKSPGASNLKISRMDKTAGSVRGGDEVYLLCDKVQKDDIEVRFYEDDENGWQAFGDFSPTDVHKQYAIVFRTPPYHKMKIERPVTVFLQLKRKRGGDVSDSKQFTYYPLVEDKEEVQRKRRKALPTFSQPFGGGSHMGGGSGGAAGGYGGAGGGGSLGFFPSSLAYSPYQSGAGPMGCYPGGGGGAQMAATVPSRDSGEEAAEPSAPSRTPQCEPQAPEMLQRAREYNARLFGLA

[6] = RelB binding IC50 (uM), cells without % sign

| IC50 ([1]; 2 hours pre-treatment, 20 ng/ml TNF-α 18 hours, median of three experiments ± standard error, read-out: median IC50, expression of the luciferase gene) | IC50 ([2]; 2 hours pre-treatment, 20 ng/ml TNF-α 18 hours, median of three experiments ± standard error, read-out: median IC50, expression of the Green fluorescent protein gene) | Compound | EC50 [1] | EC50 [2] | inhibition of IL-6 ([3]; LPS stimulated RAW264.7, FIG. 5B) | EC50 [3] | IC50 [4] | IC50 [5, 6] | IC50 ([5]; RelB binding to DNA IC50, FIG. 8, non-canonical pathway) |
| --- | --- | --- | --- | --- | --- | --- | --- | --- | --- |
| 16.2 ± 1.1 µM | 6.2 ± 0.5 µM | O=C(NC1=CC(=O)C2OC2C1O)c1cccnc1O (racemic) [Example 1, (±)-2-hydroxy-N-(2-hydroxy-5-oxo-7-oxabicyclo[4.1.0]hept-3-en-3-yl)nicotinamide] | 6.2 µM | 6.2 µM | inhibited in a dose dependent manor | 6.5 µM | 26 µM | 7.4 µM | – |
| – | – | O=C(NC1=CC(=O)C2OC2C1O)c1cc2ccccc2nc1O (racemic) [Example 2, (±)-2-hydroxy-N-(2-hydroxy-5-oxo-7-oxabicyclo[4.1.0]hept-3-en-3-yl)quinoline-3-carboxamide] | 4.1 µM | 0.21 µM | – | 0.24 µM | 2.1 µM | 2 µM | ~2 µM |
